# Reference: ChEMBL document CHEMBL1201862, “PubChem BioAssay data set” (2004)
# Calls of active or inactive are those of the source.
# How the values were obtained:
# P388/ADR = assay: cells; format: functional; settings: Mus musculus
# P388 = assay: cells; format: functional; settings: Mus musculus
# SN12K1 = assay: cells; format: functional; settings: Homo sapiens
# INS1 = assay: beta cell apoptosis inhibitors, cytokine rescue, dose response, luminescence, retest (AID 449756); format: functional, cell-based; settings: Rattus norvegicus;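 also: cell death triggered by IL-1 beta plus TNF-alpha plus IFN-gamma mixture; protective hits raise ATP signal compared with cytokine alone wells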
# cells = format: functional
# [1] = biological target: T1, Rac GTPase-activating protein 1 (Homo sapiens, UniProt Q9H0H5); assay: MgcRacGAP GTPase-activating activity inhibitors, confirmation, biochemical, ADP Hunter fluorescence, primary and confirmatory (AID 624330); format: functional
# T1 sequence (Q9H0H5 whole entry): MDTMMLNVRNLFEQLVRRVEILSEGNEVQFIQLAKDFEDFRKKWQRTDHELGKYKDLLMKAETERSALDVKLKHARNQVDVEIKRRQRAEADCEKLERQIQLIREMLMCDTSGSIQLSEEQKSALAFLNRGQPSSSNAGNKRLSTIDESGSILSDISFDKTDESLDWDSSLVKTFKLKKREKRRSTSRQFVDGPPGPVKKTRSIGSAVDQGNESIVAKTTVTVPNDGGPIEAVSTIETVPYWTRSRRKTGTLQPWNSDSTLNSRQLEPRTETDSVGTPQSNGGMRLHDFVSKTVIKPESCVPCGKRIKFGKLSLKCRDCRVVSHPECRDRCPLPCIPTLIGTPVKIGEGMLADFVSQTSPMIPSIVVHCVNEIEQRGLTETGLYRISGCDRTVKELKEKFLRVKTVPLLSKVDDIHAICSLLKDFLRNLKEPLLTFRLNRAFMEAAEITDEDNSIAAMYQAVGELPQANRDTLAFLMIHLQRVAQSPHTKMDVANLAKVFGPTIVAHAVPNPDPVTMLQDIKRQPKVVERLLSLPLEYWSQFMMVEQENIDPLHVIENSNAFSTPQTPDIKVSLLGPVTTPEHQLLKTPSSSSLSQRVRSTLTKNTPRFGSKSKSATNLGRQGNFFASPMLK
# [2] = HEp-2 cell cytotoxicity, dose response, cytotoxicity control for RSV inhibitor project, HTS (AID 2410); format: functional; settings: human respiratory syncytial virus
# [3] = biological target: T2, Corticotropin-releasing factor receptor 2/Corticotropin-releasing factor-binding protein (Homo sapiens, UniProt P24387+Q13324); assay: activators of CRF receptor 2 with binding protein – uHTS hits, confirmation (AID 602473); format: functional; settings: read-out: EC50_Mean
# T2 sequence (Q13324 whole entry): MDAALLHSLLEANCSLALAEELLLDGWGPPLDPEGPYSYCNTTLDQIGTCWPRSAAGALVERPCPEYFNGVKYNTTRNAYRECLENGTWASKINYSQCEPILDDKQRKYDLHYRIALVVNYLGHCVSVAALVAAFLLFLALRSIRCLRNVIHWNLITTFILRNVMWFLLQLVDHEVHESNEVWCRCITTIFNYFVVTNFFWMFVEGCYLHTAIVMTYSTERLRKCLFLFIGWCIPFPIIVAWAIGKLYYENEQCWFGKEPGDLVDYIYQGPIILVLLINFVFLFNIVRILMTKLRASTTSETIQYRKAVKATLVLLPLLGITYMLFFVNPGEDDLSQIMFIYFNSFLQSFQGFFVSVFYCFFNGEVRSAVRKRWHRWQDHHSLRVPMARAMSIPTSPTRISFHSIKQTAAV
# T2 sequence (P24387 whole entry): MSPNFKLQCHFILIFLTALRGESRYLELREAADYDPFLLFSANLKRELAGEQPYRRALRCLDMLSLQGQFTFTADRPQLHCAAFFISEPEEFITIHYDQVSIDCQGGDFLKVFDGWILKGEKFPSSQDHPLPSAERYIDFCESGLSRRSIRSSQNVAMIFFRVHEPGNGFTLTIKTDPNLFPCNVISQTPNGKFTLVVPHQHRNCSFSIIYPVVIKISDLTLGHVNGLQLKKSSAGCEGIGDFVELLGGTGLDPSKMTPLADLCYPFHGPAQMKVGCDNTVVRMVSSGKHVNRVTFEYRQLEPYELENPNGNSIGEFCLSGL
# [4] = biological target: T2, Corticotropin-releasing factor receptor 2/Corticotropin-releasing factor-binding protein; assay: Dose Response confirmation of uHTS hits for small molecule antagonists of the CRF-binding protein and CRF-R2 receptor complex.; format: functional; settings: read-out: IC50_Mean
# Cytochrome P450 3A4 = Cytochrome P450 3A4 (Homo sapiens, UniProt P08684);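 also: CYP3A4 tested as one member of a cytochrome P450 panel screen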
# Cytochrome P450 3A4, sequence (P08684 whole entry): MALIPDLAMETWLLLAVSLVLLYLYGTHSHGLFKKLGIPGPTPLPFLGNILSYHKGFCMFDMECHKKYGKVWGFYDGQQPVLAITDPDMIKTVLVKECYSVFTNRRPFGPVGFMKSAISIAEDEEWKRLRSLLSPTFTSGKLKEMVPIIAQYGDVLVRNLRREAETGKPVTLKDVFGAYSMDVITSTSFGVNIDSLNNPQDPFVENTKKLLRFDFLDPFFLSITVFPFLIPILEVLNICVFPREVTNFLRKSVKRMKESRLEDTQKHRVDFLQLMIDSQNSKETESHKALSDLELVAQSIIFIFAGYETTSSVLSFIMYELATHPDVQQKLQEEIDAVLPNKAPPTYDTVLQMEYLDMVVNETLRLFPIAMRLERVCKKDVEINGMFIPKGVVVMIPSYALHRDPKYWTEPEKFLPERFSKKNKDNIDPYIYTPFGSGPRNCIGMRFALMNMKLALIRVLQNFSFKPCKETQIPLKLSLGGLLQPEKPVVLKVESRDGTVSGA
# Cytochrome P450 2D6 = Cytochrome P450 2D6 (Homo sapiens, UniProt P10635);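 also: CYP2D6 member of a cytochrome P450 panel assay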
# Cytochrome P450 2D6, sequence (P10635 whole entry): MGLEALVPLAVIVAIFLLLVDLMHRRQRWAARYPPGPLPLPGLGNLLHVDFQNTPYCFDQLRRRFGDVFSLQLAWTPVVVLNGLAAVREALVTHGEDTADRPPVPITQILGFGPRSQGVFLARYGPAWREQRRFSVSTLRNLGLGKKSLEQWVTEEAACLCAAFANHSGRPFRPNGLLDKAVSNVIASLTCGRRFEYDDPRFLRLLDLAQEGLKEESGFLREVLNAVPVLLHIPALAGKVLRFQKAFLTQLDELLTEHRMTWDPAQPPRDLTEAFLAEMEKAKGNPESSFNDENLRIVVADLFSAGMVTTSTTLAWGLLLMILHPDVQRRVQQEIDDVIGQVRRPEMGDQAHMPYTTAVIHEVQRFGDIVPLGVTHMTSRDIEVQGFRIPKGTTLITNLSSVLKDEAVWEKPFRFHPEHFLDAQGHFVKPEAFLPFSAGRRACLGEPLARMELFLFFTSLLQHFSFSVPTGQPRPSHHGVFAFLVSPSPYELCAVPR
# [5] = Luminescence Cell-Based Dose Retest to Confirm Inhibitors of Cancer Stem Cells. [Related pubchem assays (depositor defined):AID2717, AID2721]; format: functional; settings: Homo sapiens
# Cytochrome P450 1A2 = biological target: T3, Cytochrome P450 1A2 (Homo sapiens, UniProt P05177);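 also: PubChem cytochrome P450 panel assay, CYP1A2 panel member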
# T3 sequence (P05177 whole entry): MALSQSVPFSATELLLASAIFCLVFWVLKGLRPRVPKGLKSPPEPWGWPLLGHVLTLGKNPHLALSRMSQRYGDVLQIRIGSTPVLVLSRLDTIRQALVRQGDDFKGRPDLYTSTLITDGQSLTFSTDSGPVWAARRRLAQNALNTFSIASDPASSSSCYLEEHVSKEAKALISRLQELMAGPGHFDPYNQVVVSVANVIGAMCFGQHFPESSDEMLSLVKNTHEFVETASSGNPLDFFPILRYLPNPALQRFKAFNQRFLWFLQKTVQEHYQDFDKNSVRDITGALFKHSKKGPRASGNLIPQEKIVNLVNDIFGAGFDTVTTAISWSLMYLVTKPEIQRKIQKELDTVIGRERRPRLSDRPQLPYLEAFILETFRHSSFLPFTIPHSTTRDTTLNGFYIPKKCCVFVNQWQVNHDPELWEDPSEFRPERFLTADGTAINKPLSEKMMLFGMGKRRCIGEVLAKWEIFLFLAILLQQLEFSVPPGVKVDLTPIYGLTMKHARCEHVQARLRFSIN
structure (smiles),measurement,setting,value
O=NN(CCCl)C(=O)NC1CCSc2ccccc21 (stereo unspecified),GI50,P388/ADR,27.9 µM (inactive)
same,GI50,P388,21.1 µM (inactive)
same,GI50,SN12K1,> 100 µM (inactive)
Cc1c2ccnc(-c3ccccc3)c2cc2c1[nH]c1ccccc12,GI50,P388/ADR,2.63 µM (inactive)
same,GI50,P388,2.9 µM (inactive)
same,GI50,SN12K1,1.39 µM (inactive)
CCSc1ccc(NC(=O)c2cccnc2)cc1,AC50,INS1,7.23 µM (active)
O=C(OCc1cccc(F)c1)c1ccc2c(=O)n3c(nc2c1)CCC3,IC50,cells,12.1 µM (active)
CCCCOc1ccc(NC(=O)CN2CCN(CC)CC2)cc1,IC50,[1],71.7 µM (active)
CCCCOC(=O)Cn1c(-c2ccccc2)nc2ccccc2c1=O,IC50,cells,12.7 µM (active)
CCOC(=O)c1c(-c2ccccc2)csc1NC(=O)C(C)NCCCN1CCOCC1 (stereo unspecified),IC50,[1],86.1 µM (active)
COc1cc(OC)cc(-c2c(-c3cccs3)c3cc(-c4cc[nH]n4)ccc3n2C)c1,CC50,[2],11.9 µM (active)
CN=C(S)NNC(=O)COc1cccc(C)c1C,CC50,[2],48.9 µM (active)
CCOC(=O)c1ccc(NC(=O)c2cccnc2)cc1,AC50,INS1,3.75 µM (active)
CCOc1ccc(CN2CCN(Cc3c[nH]c4ccccc34)CC2)cc1,IC50,[1],93 µM (active)
same,AC50,INS1,7.24 µM (active)
CC(Sc1nnnn1-c1ccccc1)C(=O)Nc1ccccc1-c1ccccc1 (stereo unspecified),EC50,[3],> 53 µM (inactive)
same,IC50,[4],> 47.1 µM (inactive)
Cc1cc(C)cc(Oc2cc(NC(=O)c3cn(C)nc3C)cc([N+](=O)[O-])c2)c1,AC50,INS1,13.5 µM (active)
Cc1ccc(N(Cc2ccc([N+](=O)[O-])cc2)C(=O)c2ccco2)cc1,AC50,Cytochrome P450 3A4,28.2 µM (inconclusive)
same,EC50,[3],> 53 µM (inactive)
same,AC50,Cytochrome P450 2D6,0.562 µM (inconclusive)
same,IC50,[4],> 47.1 µM (inactive)
Cc1nc(-c2ccccc2)sc1C(=O)/C=C/c1ccc(Cl)cc1,AC50,[5],4.89 µM (active)
C=CCN(C(=O)Cn1nc(C)n2c(cc3cc(C)ccc32)c1=O)c1ccccc1,CC50,[2],> 50 µM (active)
O=C(NCc1ccncc1)c1cc(-c2ccc(Cl)cc2)oc1C(F)(F)F,AC50,INS1,18.6 µM (active)
Cc1ccc(-n2nnnc2SCC(=O)Nc2cccnc2Cl)cc1,EC50,[3],> 53 µM (inactive)
same,IC50,[4],> 47.1 µM (inactive)
CC(=O)N1CCN(CC(O)COc2ccc(Br)cc2)CC1 (stereo unspecified),IC50,[1],159 µM (active)
COc1cc(C=C2C(=O)NC(=O)NC2=O)ccc1OCc1ccc([N+](=O)[O-])cc1,IC50,[1],158 µM (active)
COc1cccc(OC)c1NC(=O)CN1CCN(C)CC1,IC50,[1],100 µM (active)
FC(F)(F)c1ccccc1N=C(S)N1CCc2ccccc2C1,AC50,INS1,8.78 µM (active)
COC(=O)c1cc(NC(S)=NCc2ccc(Cl)cc2)cc(C(=O)OC)c1,CC50,[2],26.3 µM (active)
CCc1ccc(NC(=O)c2cc3c(C)nc4ccccc4c3o2)cc1,AC50,[5],6.51 µM (active)
same,CC50,[2],39.6 µM (active)
[N-]=[N+]=CC(=O)OCC(N)C(=O)O (stereo unspecified),GI50,P388/ADR,0.352 µM (active)
same,GI50,P388,0.156 µM (active)
same,GI50,SN12K1,0.206 µM (active)
CC(C)CN1CCN(Cc2cccc3nccnc23)CC1CCO (stereo unspecified),EC50,[3],> 53 µM (inactive)
same,IC50,[4],> 47.1 µM (inactive)
COc1ccc(NC2CCCN(C(=O)c3cccc(C)n3)C2)cc1OC (stereo unspecified),EC50,[3],> 53 µM (inactive)
same,IC50,[4],> 47.1 µM (inactive)
N#CC1=C(N)Oc2cc(O)c(/C=N/c3ccccc3)cc2C1c1ccccc1 (stereo unspecified),CC50,[2],9.1 µM (active)
O=C(N/N=C/c1ccccc1Cl)C1CC1,EC50,[3],> 53 µM (inactive)
same,IC50,[4],> 47.1 µM (inactive)
Cc1csc(N/N=C/c2ccccn2)n1,AC50,[5],11.2 µM (active)
COc1cccc2c1C(=O)c1c(O)c3c(c(O)c1C2=O)C[C@@](O)(/C(C)=N/NC(=O)c1ccccc1)C[C@@H]3OC1CC(N)C(O)C(C)O1 (stereo partly specified),GI50,P388/ADR,5.61 µM (inactive)
same,GI50,P388,0.132 µM (active)
same,GI50,SN12K1,0.0586 µM (active)
Nc1ccc2[nH]c3c(-c4ccccc4)nccc3c2c1,GI50,P388/ADR,19.9 µM (inactive)
same,GI50,P388,6.21 µM (inactive)
same,GI50,SN12K1,22.3 µM (inactive)
CCCCC(C)C1CCC2(C)C=CC(=O)C(C)=C2C1O (stereo unspecified),GI50,P388/ADR,> 100 µM (inactive)
same,GI50,P388,> 100 µM (inactive)
same,GI50,SN12K1,> 100 µM (inactive)
CC(=O)OCC1OC(n2cc(F)c(=O)[nH]c2=O)C(NC(=O)OCc2ccccc2)C(OC(C)=O)C1OC(C)=O (stereo unspecified),GI50,P388/ADR,> 100 µM (inactive)
same,GI50,P388,> 100 µM (inactive)
same,GI50,SN12K1,> 100 µM (inactive)
C/C(=N\Nc1nc(C)cc(-c2ccccc2)n1)c1ccccc1,AC50,INS1,2.37 µM (active)
CC1C(O)C2(Oc3cc4c(c5c3[C@@H](CC5O)[C@H]2C)CCC2Cc3nc5c(nc3C[C@@]42C)CC2CCC3C4=C[C@H]6O[C@@]7(O[C@@](C)(CO)C[C@@H]7O)C(C)[C@@]6(O)[C@]4(C)[C@@H](O)CC3[C@]2(C)C5)OC1(C)C (stereo partly specified),GI50,P388/ADR,0.52 µM (active)
same,GI50,P388,0.0278 µM (active)
same,GI50,SN12K1,0.0278 µM (active)
C=C1C(=O)C[C@@]23CCC[C@@]12CC(O)C3 (stereo partly specified),GI50,P388/ADR,5.15 µM (inactive)
same,GI50,P388,3.61 µM (inactive)
same,GI50,SN12K1,17 µM (inactive)
CCOC(=O)c1ccc(N[C@@H]2c3cc4c(cc3C(c3cc(OC)c(O)c(OC)c3)[C@H]3C(=O)OCC32)OCO4)cc1O (stereo partly specified),GI50,P388/ADR,0.227 µM (active)
same,GI50,P388,< 0.01 µM (active)
same,GI50,SN12K1,0.0887 µM (active)
COc1ccc2[nH]c3ccc4cc[n+](CCN5CCC(C6CCN(CC[n+]7ccc8ccc9[nH]c%10ccc(OC)cc%10c9c8c7)CC6)CC5)cc4c3c2c1,GI50,P388/ADR,1.84 µM (inactive)
same,GI50,P388,0.546 µM (active)
same,GI50,SN12K1,0.417 µM (active)
C/C(=C\c1ccc(C(=O)O)cc1)c1ccc2c(c1)C(C)(C)CCC2(C)C,AC50,[5],3.1 µM (active)
same,AC50,Cytochrome P450 1A2,31.6 µM (inconclusive)
Cc1ccc(/N=N/c2c(C)[nH]n(C(N)=S)c2=O)cc1,IC50,cells,5.24 µM (active)
C/C(N)=C(/C#N)C(=O)COC(=O)c1cc(-c2cccc3ccccc23)nc2ccccc12,CC50,[2],7.25 µM (active)
Nc1ncnc2c1ncn2[C@@H]1O[C@H](COP(=O)(O)O)[C@@H](O)[C@@H]1O,GI50,P388/ADR,> 16.1 µM (inactive)
same,GI50,P388,> 7.93 µM (inactive)
same,GI50,SN12K1,> 50 µM (inactive)
C[C@@H]1O[C@@H](O[C@H]2CC[C@]3(C=O)[C@H]4CC[C@]5(C)[C@@H](c6ccc(=O)oc6)CC[C@]5(O)[C@@H]4CC[C@]3(O)C2)[C@H](O)[C@H](O)[C@H]1O[C@@H]1O[C@H](CO)[C@@H](O)[C@H](O)[C@H]1O [HELLEBRIN],GI50,P388/ADR,113 µM (inactive)
same,GI50,P388,64.7 µM (inactive)
same,GI50,SN12K1,0.0375 µM (active)
